Species: Rattus norvegicus
Test: Open TG-GATES - Regimen: Single
Format: toxicity, organism-based, Sprague-Dawley
Set-up: regimen Single, gender Male, age 6 weeks
Conditions: in vivo, po, 60 mg/kg, route gavage, dose level High; for APTT / Bas / Eos / Fbg / Hb / Ht / Lym / MCH / MCHC / MCV / Mono / Neu / PT / Plat / RBC / Ret / WBC: tissue Blood; for LIVER: tissue Liver; for A/G / ALP / ALT / AST / BUN / CRE / Ca / Cl / DBIL / GLC / IP / K / LDH / Na / PL / RALB / TBIL / TC / TG / TP / gamma-GTP: tissue Plasma

## O=[N+]([O-])c1ccc(O)c([N+](=O)[O-])c1 [2,4-DINITROPHENOL]
3 h
  TERMINAL_BW: 203.7 g
  APTT: 17.2 s
  Bas: 0%
  Eos: 0.4%
  Fbg: 232.6 mg/dL
  Hb: 12.5 g/dL
  Ht: 37.7%
  Lym: 79.6%
  MCH: 21.3 pg
  MCHC: 33.4%
  MCV: 63.9 fL
  Mono: 7%
  Neu: 13.2%
  PT: 12.4 s
  Plat: 127.8 x10_4/uL
  RBC: 590 x10_4/ul
  Ret: 8.6%
  WBC: 75.8 x10_2/uL
  LIVER: 8.6 g
  A/G: 2.6
  ALP: 1665.4 IU/L
  ALT: 39.6 IU/L
  AST: 95.6 IU/L
  BUN: 19 mg/dL
  CRE: 0.5 mg/dL
  Ca: 11.4 mg/dL
  Cl: 103.6 meq/L
  DBIL: 0.014 mg/dL
  GLC: 236.8 mg/dL
  IP: 11.4 mg/dL
  K: 4.5 meq/L
  LDH: 215 IU/L
  Na: 137 meq/L
  PL: 129.4 mg/dL
  RALB: 3.9 g/dL
  TBIL: 0.026 mg/dL
  TC: 77.6 mg/dL
  TG: 56.8 mg/dL
  TP: 5.4 g/dL
  gamma-GTP: 0 IU/L
6 h
  TERMINAL_BW: 206.8 g
  APTT: 16.1 s
  Bas: 0%
  Eos: 0.4%
  Fbg: 247.6 mg/dL
  Hb: 12.6 g/dL
  Ht: 38%
  Lym: 70.4%
  MCH: 21.8 pg
  MCHC: 33.3%
  MCV: 65.6 fL
  Mono: 9.4%
  Neu: 19.8%
  PT: 11.7 s
  Plat: 116.6 x10_4/uL
  RBC: 580.4 x10_4/ul
  Ret: 10%
  WBC: 114 x10_2/uL
  LIVER: 8.7 g
  A/G: 2.7
  ALP: 1501.4 IU/L
  ALT: 36.2 IU/L
  AST: 96.6 IU/L
  BUN: 20.6 mg/dL
  CRE: 0.6 mg/dL
  Ca: 11.4 mg/dL
  Cl: 106.6 meq/L
  DBIL: 0.012 mg/dL
  GLC: 245.4 mg/dL
  IP: 10.2 mg/dL
  K: 4.3 meq/L
  LDH: 245.4 IU/L
  Na: 138.6 meq/L
  PL: 150.4 mg/dL
  RALB: 4 g/dL
  TBIL: 0.026 mg/dL
  TC: 93.4 mg/dL
  TG: 31.4 mg/dL
  TP: 5.5 g/dL
  gamma-GTP: 0 IU/L
9 h
  TERMINAL_BW: 192.8 g
  APTT: 16.1 s
  Bas: 0%
  Eos: 0.5%
  Fbg: 244.8 mg/dL
  Hb: 12.6 g/dL
  Ht: 37.6%
  Lym: 74.5%
  MCH: 21.8 pg
  MCHC: 33.5%
  MCV: 65 fL
  Mono: 5.8%
  Neu: 19.2%
  PT: 11.9 s
  Plat: 117.2 x10_4/uL
  RBC: 579.2 x10_4/ul
  Ret: 8.8%
  WBC: 92.8 x10_2/uL
  LIVER: 7.3 g
  A/G: 2.5
  ALP: 1343 IU/L
  ALT: 32.2 IU/L
  AST: 87.2 IU/L
  BUN: 20 mg/dL
  CRE: 0.5 mg/dL
  Ca: 11.1 mg/dL
  Cl: 108 meq/L
  DBIL: 0.02 mg/dL
  GLC: 247.5 mg/dL
  IP: 9.7 mg/dL
  K: 4.7 meq/L
  LDH: 154.8 IU/L
  Na: 138.2 meq/L
  PL: 146.5 mg/dL
  RALB: 3.8 g/dL
  TBIL: 0.0225 mg/dL
  TC: 88.2 mg/dL
  TG: 56.2 mg/dL
  TP: 5.4 g/dL
  gamma-GTP: 0.5 IU/L
24 h
  TERMINAL_BW: 207.1 g
  APTT: 15.7 s
  Bas: 0%
  Eos: 0.8%
  Fbg: 263.6 mg/dL
  Hb: 13.3 g/dL
  Ht: 39.9%
  Lym: 71%
  MCH: 21.6 pg
  MCHC: 33.3%
  MCV: 64.7 fL
  Mono: 8%
  Neu: 20.4%
  PT: 11.7 s
  Plat: 123.2 x10_4/uL
  RBC: 617.2 x10_4/ul
  Ret: 8.5%
  WBC: 120.4 x10_2/uL
  LIVER: 10.7 g
  A/G: 2.4
  ALP: 1582.4 IU/L
  ALT: 35.6 IU/L
  AST: 73.8 IU/L
  BUN: 19.2 mg/dL
  CRE: 0.4 mg/dL
  Ca: 11.6 mg/dL
  Cl: 105.2 meq/L
  DBIL: 0.018 mg/dL
  GLC: 176.2 mg/dL
  IP: 6.4 mg/dL
  K: 4.6 meq/L
  LDH: 149.2 IU/L
  Na: 140 meq/L
  PL: 173 mg/dL
  RALB: 4 g/dL
  TBIL: 0.018 mg/dL
  TC: 93.4 mg/dL
  TG: 169.6 mg/dL
  TP: 5.7 g/dL
  gamma-GTP: 0.8 IU/L

— ChEMBL document CHEMBL3885861, “Open TG-GATES”
